Measurements: PMC12056667 (Chemical Science, 2025)

Columns and labels:
[1] = molecular target: Tet(X4) (Escherichia coli, UniProt A0A3T0V9Y5); experiment: biochemical; details: 20 μM tigecycline, 50 nM Tet(X4), 100 μM NADPH, 5 mM MgCl2, 1 μM FAD, 100 mM TAPS pH 8.5; read-out: IC50, UPLC assay
Outline: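 Endpoint turnover assay: 100 nM Tet(X4) with […] and 10 mM MgCl2 in 100 mM TAPS pH 8.5, preincubated with inhibitor 15 min at 30 °C, then 40 μM tigecycline plus 200 μM NADPH added […] for 20 min at 30 °C.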

[2] = test system: Acinetobacter spp. NT3-1 – tet(X3); experiment: microbe, parasite or virus in culture; format: cell-based; details: for MIC: Acinetobacter, read-out: Tet(X) Inhibitor MIC, alone; for Combination (Antibiotic/Inhibitor) MICs: inhibitor / Combination (Antibiotic/Inhibitor) MICs: antibiotic: lowest FICI
Procedure: (§1) MIC tests and checkerboard assays were performed in U-bottom, 96-well microtiter plates using a modified broth microdilution protocol following CLSI guidelines. Cation-adjusted Mueller-Hinton Broth (CAMHB) was prepared fresh on the day of testing.[74] In brief, assays were set up in a total volume of 100 μL per well and titrations comprised seven 2-fold dilutions of inhibitors and ten 2-fold dilutions of tigecycline in CAMHB. Bacterial colonies were selected from an overnight culture on MHA plates (supplemented with 0.2%w/vL-arabinose for E. coli TOP10 containing pBAD-TOPO-Tet(X4)) and were suspended in 0.9% saline solution to achieve a 0.5 McFarland standard. A 100 μL aliquot of this suspension was then diluted into 9.9 mL of CAMHB to yield approximately 1.5 × 10^6 cfu mL^−1. 50 μL of the suspension was then added to each well of a microtiter plates. Plates were incubated at 37 °C for 18 h. At least 2 replicates were conducted for each combination. E. coli TOP10 + pBAD-TOPO-Tet(X4) cells were grown in the absence and presence of 0.2%w/vL-arabinose. Analysis of the MIC and checkerboard results were carried out by visual inspection of growth, with and without resazurin dye, an oxidation–reduction indicator.[75] As a measure of synergy, fractional inhibitory concentration index (FICI) was calculated as FICA + FICB, where FICA and FICB are the MICcombination/MICalone for each agent, respectively.[76] Results were interpreted as follows: synergistic (<0.5), indifferent (1.0–4.0) or antagonistic (>4.0).[64] In cases where the MIC exceeded or was below the measured range, the borderline value was taken to calculate the FIC index.

[3] = test system: Salmonella enterica T-2a – tet(X4); experiment: microbe, parasite or virus in culture; format: cell-based; details: for MIC: Salmonella enterica, read-out: Tet(X) Inhibitor MIC; for Combination (Antibiotic/Inhibitor) MICs: inhibitor / Combination (Antibiotic/Inhibitor) MICs: antibiotic: lowest FICI
Procedure: as §1

[4] = inhibitor in combination with tigecycline
[5] = tigecycline in combination with the inhibitor

Row | Compound | IC50 [1] | MIC ([2]; Acinetobacter spp. NT3-1) | Combination (Antibiotic/Inhibitor) MICs: inhibitor [2, 4] | Combination (Antibiotic/Inhibitor) MICs: antibiotic [2, 5] | FICI ([2]; with tigecycline) | Outcome ([2]; with tigecycline) | MIC [3] | Combination (Antibiotic/Inhibitor) MICs: inhibitor [3, 4] | Combination (Antibiotic/Inhibitor) MICs: antibiotic [3, 5] | FICI ([3]; with tigecycline) | Outcome ([3]; with tigecycline) | other results
1 | CN1CCN(CCCN2c3ccccc3Sc3ccc(C(F)(F)F)cc32)CC1 [Trifluoperazine] | 83.8 ± 21.4 µM | 16 µg/mL | 16 µg/mL | 4 µg/mL | 2 | indifferent (indifferent (0.5-4.0)) | > 128 µg/mL | 64 µg/mL | 16 µg/mL | 1 | indifferent (indifferent (0.5-4.0)) | 
2 | O=C(c1ccc(OCCN2CCCCC2)cc1)c1c(-c2ccc(O)cc2)sc2cc(O)ccc12 [Raloxifene] | 8.3 ± 2.1 µM | 4 µg/mL | 2 µg/mL | 2 µg/mL | 1 | indifferent (indifferent (0.5-4.0)) | > 128 µg/mL | 128 µg/mL | 16 µg/mL | 1.5 | indifferent (indifferent (0.5-4.0)) | 
3 | [H]/N=C(/NCCCCC)N/N=C/c1c[nH]c2ccc(OC)cc12 [Tegaserod] | 25.9 ± 2.4 µM | 4 µg/mL | 2 µg/mL | 0.5 µg/mL | 0.6 | indifferent (indifferent (0.5-4.0)) | 32 µg/mL | 8 µg/mL | 8 µg/mL | 0.5 | indifferent (indifferent (0.5-4.0)) | Tet(X) inhibitor MIC ([2]; alone, Acinetobacter spp. NT3-1): 8 µg/mL; Combination (Antibiotic/Inhibitor) MICs: antibiotic ([2]; doxycycline with tegaserod): 4 µg/mL; Combination (Antibiotic/Inhibitor) MICs: inhibitor ([2]; tegaserod with doxycycline): 4 µg/mL; Combination (Antibiotic/Inhibitor) MICs: inhibitor ([2]; tegaserod with tetracycline): 4 µg/mL; Combination (Antibiotic/Inhibitor) MICs: antibiotic ([2]; tetracycline with tegaserod): 16 µg/mL; FICI ([2]; with doxycycline): 1.0; Outcome ([2]; with doxycycline): indifferent (indifferent (0.5-4.0)); FICI ([2]; with tetracycline): 0.8; Outcome ([2]; with tetracycline): indifferent (indifferent (0.5-4.0)); Combination (Antibiotic/Inhibitor) MICs: antibiotic ([3]; doxycycline with tegaserod): 8 µg/mL; Combination (Antibiotic/Inhibitor) MICs: inhibitor ([3]; tegaserod with doxycycline): 16 µg/mL; Combination (Antibiotic/Inhibitor) MICs: inhibitor ([3]; tegaserod with tetracycline): 16 µg/mL; Combination (Antibiotic/Inhibitor) MICs: antibiotic ([3]; tetracycline with tegaserod): 32 µg/mL; FICI ([3]; with doxycycline): 0.8; Outcome ([3]; with doxycycline): indifferent (indifferent (0.5-4.0)); FICI ([3]; with tetracycline): 0.8; Outcome ([3]; with tetracycline): indifferent (indifferent (0.5-4.0))
4 | Cc1c2c(c(O)c3c(O)cccc13)C(=O)[C@]1(O)C(=O)C(C(N)=O)=C(O)[C@@H](N(C)C)[C@@H]1C2 [Anhydrotetracycline] | 2.6 ± 0.3 µM | 2 µg/mL | 0.25 µg/mL | 0.5 µg/mL | 0.3 | synergy (synergy (< 0.5)) | 32 µg/mL | 16 µg/mL | 8 µg/mL | 0.8 | indifferent (indifferent (0.5-4.0)) | 
